The results in this text go back to patent US8759387B2, “Arylalkylamine compound and process for preparing the same” (Mitsubishi Tanabe Pharma Corporation, priority 2004, dated 2014).

The test system of assay [1] is rat parathyroid cells. Briefly: Suppressing effect on PTH production, in vitro test using rat parathyroid cells (PTH (1-84) ELISA). Type of assay: cell-based. The following applies: primary cultured rat parathyroid cells, 1.15 mM Ca, 22 to 24 hours culture. The source says: In Vitro Test Using Rat Parathyroid Cells
By using primary cultured cells prepared from the parathyroid in rats, suppressing effect on PTH production was examined according to the following in vitro test.
(1) Preparation and Culture of Rat Parathyroid Cells:
Thirty-six 10-weeks old male CD (SD) IGS rats (Crj series, grade: SPF, CHARLES RIVER LABORATORIES JAPAN, INC.) were euthanasically sacrificed under ether anesthesia, the thyroid gland together with the parathyroid glands were cut out under sterilized conditions, and preserved in ITS-containing DMEM/F-12 medium (low Ca). The parathyroid glands were separated from the obtained material under observation by stereoscopic microscope, and collected in the same medium. Next, the medium was discarded, the parathyroid glands were washed with a phosphate buffer solution (PBS(−)) containing no calcium and magnesium ions, 5 ml of a collagenase solution [PBS(−) containing 1.5 mg/ml of collagenase type IV (Gibco Co., catalogue No. 17104-019)] was added, and digested at 37° C. for 1 hour with shaking. After digestion, the enzyme solution was discarded, the parathyroid glands were quickly minced with a scalpel in a laboratory dish, and were collected in 7 ml of a collagenase solution, and digested again at 37° C. for 90 minutes with shaking.
Cell debris was removed using cell strainer, the residue was removed, and then, the cells were collected. They were washed twice with an ITS-containing DMEM/F-12 medium (low Ca) containing 5% FCS, and suspended in the same medium. The parathyroid cells were suspended at the concentration of about 5×10^4 cells/ml, and were seeded to 96-well plate (200 μl/well), and cultured (pre-culture) at 37° C. for about 24 hours in a CO2 incubator.
The ITS-containing DMEM/F-12 medium (low Ca) to be used mentioned above was prepared as follows. Ca-free DMEM (Dulbecco's modified Eagle's medium) (Gibco Co., catalogue No. 21068-028)(500 ml), F-12 (F-12 nutrient mixture; Gibco Co., catalogue No. 11765-054)(500 ml) and 10 ml of ITS (a mixture containing 5 μg/ml of insulin, 5 μg/ml of transferrin and 5 ng/ml of selenium) (ITS+Premix; BD Biosciences Co., catalogue No. 35435) were mixed. To the mixture was dissolved 3.5745 g of HEPES (NACALAI TESQUE Co., catalogue No. 17547-95), and 10 ml of 200 mM L-glutamine (Gibco Co., catalogue No. 25030-081) and 1 ml of Penicillin-Streptomycin solution (100×Penicillin-Streptomycin, liquid; Gibco Co., catalogue No. 15140-122) were added, and the resulting mixture was sterilized by filtration, and then, used. Ca concentration in the medium is about 0.15 mM.
(2) Test of Suppressing Effect on PTH Production
Rat parathyroid cells were pre-cultured as mentioned in the above (1), then, the medium was changed, and the cells were cultured for 22 to 24 hours in a medium to which a test compound and CaCl2 had been added (96-well plate, 200 μl/well). Various concentrations of the test compound and CaCl2 were added to a serum-free ITS-containing DMEM/F-12 medium (low Ca), and the resulting medium was used. When the test compound is to be added, CaCl2 was added so that the Ca concentration became 1.15 mM. […]
PTH (1-84) in the above-mentioned culture supernatant was measured by the ELISA Method, and determined as a PTH production value. […]
Based on the measured value (PTH production value), of the test compounds, the inhibition rate in PTH production was calculated. […]

In assay [2] the target is T1, human CaSR (Homo sapiens, UniProt P41180).
T1 construct: the full length cDNA encoding CaSR was obtained first as three divisional parts; expressed in transfected cells
T1 sequence (P41180 20-1078): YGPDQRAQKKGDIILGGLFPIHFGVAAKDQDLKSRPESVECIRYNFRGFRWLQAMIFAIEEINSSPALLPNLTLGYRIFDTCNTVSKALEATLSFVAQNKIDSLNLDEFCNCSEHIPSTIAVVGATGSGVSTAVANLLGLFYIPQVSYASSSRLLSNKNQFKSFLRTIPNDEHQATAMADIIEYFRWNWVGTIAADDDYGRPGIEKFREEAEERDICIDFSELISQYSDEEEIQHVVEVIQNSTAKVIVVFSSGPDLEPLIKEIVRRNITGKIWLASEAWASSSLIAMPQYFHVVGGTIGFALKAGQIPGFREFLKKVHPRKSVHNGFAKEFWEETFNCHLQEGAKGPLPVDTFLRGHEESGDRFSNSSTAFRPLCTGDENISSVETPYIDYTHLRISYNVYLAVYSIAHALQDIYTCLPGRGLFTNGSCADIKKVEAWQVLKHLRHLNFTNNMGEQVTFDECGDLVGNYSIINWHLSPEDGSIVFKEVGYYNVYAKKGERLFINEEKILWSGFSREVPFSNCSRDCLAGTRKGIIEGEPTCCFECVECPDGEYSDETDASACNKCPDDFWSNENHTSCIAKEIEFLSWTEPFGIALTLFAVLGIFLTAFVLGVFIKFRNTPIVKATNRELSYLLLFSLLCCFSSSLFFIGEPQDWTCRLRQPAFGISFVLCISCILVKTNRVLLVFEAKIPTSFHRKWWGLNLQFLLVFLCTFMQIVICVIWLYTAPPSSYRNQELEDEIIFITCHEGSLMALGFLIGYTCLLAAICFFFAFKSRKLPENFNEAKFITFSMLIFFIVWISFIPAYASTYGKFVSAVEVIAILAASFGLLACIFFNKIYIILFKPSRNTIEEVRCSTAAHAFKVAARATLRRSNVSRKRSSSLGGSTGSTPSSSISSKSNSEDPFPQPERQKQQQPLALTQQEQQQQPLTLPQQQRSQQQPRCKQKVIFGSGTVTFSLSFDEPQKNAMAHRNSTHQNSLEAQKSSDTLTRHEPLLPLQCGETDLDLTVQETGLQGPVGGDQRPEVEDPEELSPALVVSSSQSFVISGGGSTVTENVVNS
Briefly: CaSR activating effect, in vitro test using CaSR expressing cells (intracellular calcium, Fura-2/FDSS). Type of assay: cell-based. The conditions noted are these: CHO cells stably expressing human CaSR and Gα16; change in intracellular calcium concentration. The source says: In vitro test using CaSR expressing cells
CaSR is a member of G protein-coupled receptor (GPCR). When CaSR of cells are activated by stimulating with extracellular Ca^2+ ion or an agonist (a compound having CaSR activating effect), etc., phospholipase C(PLC) is activated through G protein (Gq), and an intracellular calcium concentration is increased.
Thus, an activating effect on CaSR was examined by using CaSR expressing cell line and referring to change in an intracellular calcium concentration as an index. Preparation of cell strains and a test using the same are, more specifically, carried out as mentioned in the following (1) and (2).
(1) Acquisition of Human CaSR Expressing Cell Line
cDNA fragment encoding human CaSR was obtained from human kidney derived cDNA library by PCR.
[Primer to be Used for PCR was Designed Based on Known Nucleic Acid Sequence Information on Human CaSR (GenBank/EMBL Accession No. D50855; GenBank/EMBL Accession No. NM000388;
• Aida et al., Biochem. Biophys. Res. Commun., 214:524-529, 1995; • Garrett et al., J. Biol. Chem., 270: 12919-12925, 1995, etc.). Also, the full length cDNA encoding CaSR was obtained first as three divisional parts.]
These cDNA fragments were adequately connected to an expression vector to obtain a plasmid for expressing a functional human CaSR in animal cells.
Also, this human CaSR expression plasmid was transfected to CHO cells with a Qα16 expression plasmid α plasmid which is to express a subunit (α16) of G protein], and selected from a medium containing neomycin (G418) to obtain stable expressing cell line.
The obtained cell line stably expressed CaSR of human and α16 subunit of G protein.
(2) Measurement of Calcium Concentration in Cells
By using the CaSR expressing cell line obtained in the above-mentioned (1), change in an intracellular calcium concentration was measured at the time when the cells were stimulated in the presence or in the absence of a test compound as follows.
First, cells were collected using a cell scraper, suspended in a solution comprising Hepes buffer [10 mM Hepes (7.3), 10 mM glucose, 140 mM NaCl, 5 mM KCl, 2 mM CaCl2, 1 mM MgCl2] to which 0.1% cremophor and 3 μM Fura-2 had been added, and reacted at 37° C. for 1 hour under the conditions wherein a test compound of various concentrations (or conditions not added).
After being washed, the cells suspended in Hepes buffer were seeded to a plate (about 2×10^5 cells per 1 well of 96-well plate), and fluorescent intensity (Ratio of 340/380 nm) was measured using FDSS (Functional Drug Screening Sysytem; Hamamatsu Photonics K. K.) to examine change in intracellular calcium concentrations.
CaSR activating effect was confirmed basing on the value (change in an intracellular calcium concentration) measured in the reaction carried out in the presence of the test compound, a CaSR activating ability was confirmed.
Also, from the measured values (change in an intracellular calcium concentration) of the test compound with various concentrations, a concentration/response curve was drawn to obtain an EC50 value (concentration of agonist giving a half maximal response).
A general note: A change in cytosolic calcium serves as a functional read-out for many receptors and channels.

Counter-ions that a name gives are not always drawn.

The term IC50 denotes the concentration that gives 50% inhibition. A word on the EC50: it is the concentration that produces a half-maximal response. With `C[C@@H](N[C@@H]1CCCN(c2ccccn2)C1)c1cccc2ccccc12` [Example 1.077], the 50% inhibitory concentration (IC50) in assay [1] was 5.3 nM. For the same compound, the EC50 in assay [2] was found to be 0.42 µM.

In assay [1], `C[C@@H](N[C@H]1CCN(c2ccc(C(=O)O)cc2)C1)c1cccc2ccccc12` [Example 3.001, 4-[(S)-3-[(R)-1-(naphthalen-1-yl)ethylamino]pyrrolidin-1-yl]benzoic acid hydrochloride] came in with an IC50 of 8 nM. Moreover, in assay [2], the EC50 was 0.29 µM.

Regarding `C[C@@H](N[C@H]1CCN(C(=O)Cc2ccccc2C(F)(F)F)C1)c1cccc2ccccc12` [Example 5.023], in assay [1], the 50% inhibitory concentration (IC50) is less than 10 nM. Also, the EC50 in assay [2] stood at 0.42 µM.

With `C[C@@H](N[C@H]1CCN(c2ccc(S(=O)(=O)NCCN(C)C)cc2)C1)c1cccc2ccccc12` [Example 12.020], the half-inhibitory concentration (IC50) in assay [1] stood at 0.27 nM. Besides, the EC50 in assay [2] is 0.018 µM.

“(S)-1-(1H-tetrazol-5-yl)pyrrolidin-3-yl-[(R)-1-(naphthalen-1-yl)ethyl]amine hydrochloride [Example 12.028]” returned a half-inhibitory concentration (IC50) in assay [1] of 0.47 nM. Also, the EC50 in assay [2] was 0.017 µM.
